The RepoRT retention time repository (doi:10.1093/pcp/pcn183)
Where a name gives a salt, the structure may show the parent alone.

Test: RP, Waters ACQUITY UPLC BEH C18, 38 °C, 0.24 mL/min; A: water + 0.1% formic acid, pH 3; B: acetonitrile + 0.1% formic acid, pH 3; gradient (min/%B) 0/0 0.25/0 0.4/9 0.8/17 1.9/100 2.1/100 2.11/0 3/0
Conditions: stereoisomer not certain

Row | LC retention time [min] | SMILES
1 | 1.28 | NC12CC3CC(CC(C3)C1)C2 [Amantadine hydrochloride]
2 | 0.17 | NOCC(=O)O [Aminooxyacetic acid Hemihydrochloride]
3 | 0.29 | NC(=NCCCC(N)C(=O)O)NC(CC(=O)O)C(=O)O (stereo not drawn) [Argininosuccinic acid disodium salt]
4 | 0.78 | N=C(N)c1ccccc1 [Benzamidine hydrochloride hydrate]
5 | 0.16 | C[N+](C)(C)CC=O [Betaine aldehyde chloride]
6 | 0.17 | C[N+](C)(C)CC(=O)[O-] [Betaine]
7 | 0.14 | NCCCCCN [Cadaverine]
8 | 1.24 | Cn1c(=O)c2c(ncn2C)n(C)c1=O [Caffeine,Anhydrous]
9 | 1.11 | CC(C)(CO)C(O)C(=O)NCCC(=O)O (stereo not drawn) [Calcium (+)-pantothenate]
10 | 1.25 | OCC1OC(Oc2cc3c(O)cc(O)cc3[o+]c2-c2ccc(O)cc2)C(O)C(O)C1O (stereo not drawn) [Callistephin Chloride]
11 | 1.93 | COc1cc(CNC(=O)CCCCC=CC(C)C)ccc1O [Capsaicin]
12 | 0.17 | C[N+](C)(C)CCO [Choline chloride]
13 | 0.19 | CN1CC(=O)NC1=N [Creatinine,anhydrous]
14 | 1.23 | Oc1cc(O)c2cc(OC3OCC(O)C(O)C3O)c(-c3ccc(O)c(O)c3)[o+]c2c1 (stereo not drawn) [Cyanidin-3-O-alpha-arabinopyranoside]
15 | 0.34 | Nc1ccn(C2OC(CO)C(O)C2O)c(=O)n1 (stereo not drawn) [Cytidine,cell culture tested]
16 | 0.67 | Nc1ccn(C2OC3COP(=O)(O)OC3C2O)c(=O)n1 (stereo not drawn) [Cytidine-3',5'-cyclicmonophosphate]
17 | 0.36 | Nc1ccn(C2OC(CO)C(OP(=O)(O)O)C2O)c(=O)n1 (stereo not drawn) [Cytidine-3'-monophosphate]
18 | 0.24 | Nc1ccn(C2OC(COP(=O)(O)O)C(O)C2O)c(=O)n1 (stereo not drawn) [Cytidine-5'-monophosphate monohydrate]
19 | 0.19 | Nc1ccnc(=O)[nH]1 [Cytosine]
20 | 0.17 | OCC1OC(OC2C(CO)OC(O)C(O)C2O)C(O)C(O)C1O [D-(+)- Maltose monohydrate]
21 | 0.15 | N[C@H]1C(O)O[C@H](CO)[C@@H](O)[C@@H]1O (stereo partly drawn) [D-(+)-Glucosamine hydrochloride]
22 | 0.21 | OCC1OC(OC2C(O)C(CO)OC2(CO)OC2OC(CO)C(O)C(O)C2O)C(O)C(O)C1O [D-(+)-Melezitose hydrate]
23 | 0.19 | O=C(O)C1(O)CC(O)C(O)C(O)C1 [D-(-)-Quinic acid]
24 | 0.19 | CC([NH3+])C(=O)NC(C)C(=O)[O-] [D-Ala-D-ala]
25 | 0.15 | N[C@H](CS)C(=O)O [D-Cysteine]

Row | LC retention time [min] | SMILES
26 | 0.16 | O=C[C@H](O)[C@H](O)COP(=O)(O)O [D-Erythrose-4-phosphate sodium salt]
27 | 0.17 | O=C(O)[C@H](O)[C@@H](O)[C@H](O)[C@H](O)CO [D-Gluconic acid sodium salt]
28 | 1.84 | CCCCCCCCCCCCCC=CC(O)C(N)COC1OC(CO)C(O)C(O)C1O [D-Glucosyl-beta1-1'-D-erythoro-Sphingosine]
29 | 0.19 | O=C1OC2C(O)C(O)OC2C1O [D-Glucurono-6,3-lactone]
30 | 0.17 | COC1C(O)C(O)C(O)C(O)C1O [D-Pinitol]
31 | 1.14 | CC(C)[C@@H](O)C(=O)O [D-alpha-Hydroxyisovaleric acid]
32 | 1.98 | CCCCCCCCCCCCCCCC(O)C(N)CO [D-erythro-Dihydrosphingosine]
33 | 1.57 | O=c1c(-c2ccc(O)cc2)coc2cc(O)ccc12 [Daidzein]
34 | 1.34 | O=c1c(-c2ccc(O)cc2)coc2cc(OC3OC(CO)C(O)C(O)C3O)ccc12 (stereo not drawn) [Daidzin]
35 | 1.34 | O=c1ccc2ccc(O)c(O)c2o1 [Daphnetin]
36 | 1.4 | CC1OC(OCC2OC(Oc3c(-c4ccccc4O)oc4cc(O)cc(O)c4c3=O)C(O)C(O)C2O)C(O)C(O)C1O (stereo not drawn) [Datiscin]
37 | 1.16 | OCC1OC(Oc2cc3c(O)cc(O)cc3[o+]c2-c2cc(O)c(O)c(O)c2)C(O)C(O)C1O (stereo not drawn) [Delphinidin-3-O-beta-glucopyranoside]
38 | 0.16 | OCCNCCO [Diethanolamine]
39 | 2 | COc1cc(CNC(=O)CCCCCCC(C)C)ccc1O [Dihydrocapsaicin]
40 | 1.33 | OCC1OC(Oc2cc(O)cc(C=Cc3ccc(O)c(O)c3)c2)C(O)C(O)C1O (stereo not drawn) [E-3,4,5'-trihydroxy-3'-glucopyranosylstilbene]
41 | 1.42 | COc1cc(C=Cc2cc(O)cc(OC3OC(CO)C(O)C(O)C3O)c2)ccc1O (stereo not drawn) [E-4,5'-dihydroxy-3-methoxy-3'-glucopyranosylstilbene]
42 | 1.59 | O=C1CC(c2ccc(O)c(O)c2)Oc2cc(O)cc(O)c21 (stereo not drawn) [Eriodictyol]
43 | 1.12 | CCC(C(=O)O)C(=O)O [Ethylmalonic acid]
44 | 0.16 | OCC1OC(OC2C(O)C(O)C(O)C(O)C2O)C(O)C(O)C1O (stereo not drawn) [Galactinol Dihydrate]
45 | 0.95 | NC(CCC(=O)NC(CSSCC(NC(=O)CCC(N)C(=O)O)C(=O)NCC(=O)O)C(=O)NCC(=O)O)C(=O)O (stereo not drawn) [Glutathione (oxidized form)]
46 | 0.16 | NCC(=O)NCC(=O)O [Gly-Gly]
47 | 0.16 | NCC(=O)O [Glycine]
48 | 0.18 | NC(N)=NCC(=O)O [Glycocyamine]
49 | 1.7 | CC1(C(=O)O)CCC2(C)CCC3(C)C(=CC(=O)C4C5(C)CCC(OC6OC(C(=O)O)C(O)C(O)C6OC6OC(C(=O)O)C(O)C(O)C6O)C(C)(C)C5CCC43C)C2C1 (stereo not drawn) [Glycyrrhizin]
50 | 0.32 | Nc1nc2nc[nH]c2c(=O)[nH]1 [Guanine]

More lines, now with the values behind:

Row | SMILES | LC retention time [min]
51 | COc1cccc(C=CC(=O)O)c1 [3-Methoxycinnamic acid] | 1.67
52 | Cn1cncc1C[C@H](N)C(=O)O [3-Methyl-L-histidine] | 0.15
53 | N#Cc1cccnc1 [3-cyanopyridine] | 1.18
54 | Nc1ccc(C(=O)O)cc1 [4-Aminobenzoic acid] | 1.13
55 | Nc1ccc(C(=O)NCC(=O)O)cc1 [4-Aminohippurate] | 0.93
56 | Nc1ccc(O)cc1 [4-Aminophenol hydrochloride] | 0.2
57 | O=C(O)/C=C/c1ccc(O)cc1 [4-Coumaric acid] | 1.41
58 | COc1cc(C=CC=O)ccc1O [4-Hydroxy-3-methoxycinnamaldehyde] | 1.52
59 | O=C(O)c1ccc(O)cc1 [4-Hydroxybenzoate] | 1.25
60 | O=c1cc[nH]cc1 [4-Hydroxypyridine] | 0.25
61 | COc1ccc(C=CC(=O)O)cc1 [4-Methoxycinnamic acid] | 1.65
62 | Cc1ncsc1CCO [4-Methyl-5-thiazoleethanol] | 1.08
63 | O=[N+]([O-])c1ccc(OP(=O)(O)O)cc1 [4-Nitrophenyl phosphate disodium salt hexahydrate] | 0.92
64 | CCCCCC1CCC(=O)O1 (stereo not drawn) [4-Nonanolide] | 1.87
65 | O=C(CCc1ccccc1)c1c(O)cc(O)cc1OC1OC(CO)C(O)C(O)C1O (stereo not drawn) [4-deoxyphloridzin] | 1.5
66 | CC(C)CCC(=O)O [4-methyl valeric acid] | 0.56
67 | CC(=O)Oc1ccc2c(C)cc(=O)oc2c1 [4-methylumbelliferyl acetate] | 1.69
68 | CSCC1OC(n2cnc3c(N)ncnc32)C(O)C1O (stereo not drawn) [5'-Deoxy-5'-Methylthioadenosine] | 1.14
69 | O=C1CCNC(=O)N1 [5,6-Dihydrouracil] | 0.2

Row | SMILES | LC retention time [min]
70 | NCCCCC(=O)O [5-Aminovaleric acid] | 0.23
71 | O=C(O)Cc1c[nH]c2ccc(O)cc12 [5-Hydroxyindole-3-acetate (5-HIAA)] | 1.27
72 | Cc1cnc(=O)[nH]c1N [5-Methylcytosine hydrochloride] | 0.25
73 | CC(C)=CCNc1ncnc2nc[nH]c12 [6-(gamma,gamma-Dimethylallylamino)purine] | 1.32
74 | [NH3+]CCCCCC(=O)[O-] [6-Aminohexanoic acid] | 0.41
75 | CNCC(O)c1cccc(O)c1 [(R)-(-)-Phenylephrine hydrochloride] | 0.59
76 | C[C@@H](N)P(=O)(O)O [(S)-(+)-1-Aminoethylphosphonic acid] | 0.16
77 | c1ccc(NC[C@@H]2CCCN2)cc1 [(S)-(+)-2-(anilinomethyl)pyrrolidine] | 1.27
78 | CC(=O)Nc1ccc(O)cc1 [Acetaminophen] | 1.15
79 | CC(=O)OCC[N+](C)(C)C [Acetylcholine chloride] | 0.24
80 | Nc1ncnc2nc[nH]c12 [Adenine] | 0.32
81 | Nc1ncnc2c1ncn2C1OC(CO)C(OP(=O)(O)O)C1O (stereo not drawn) [Adenosine 3'-monophosphate From Yeast] | 0.64
82 | Nc1ncnc2c1ncn2C1OC(COP(=O)(O)O)C(O)C1O (stereo not drawn) [Adenosine-5'-monophosphate sodium salt] | 0.39
83 | Nc1ncnc2c1ncn2C1OC(CO)C(O)C1O (stereo not drawn) [Adenosine] | 1.06
84 | NCCCCN=C(N)N [Agmatine sulfate salt] | 0.15
85 | Nc1ccccc1 [Aniline] | 0.42
86 | Nc1ccccc1C(=O)O [Anthranilic acid] | 1.39
87 | O=C(O)CCl [Chloroacetic acid] | 0.36
88 | CCCCc1ccc(C(=O)O)nc1 [Fusaric acid] | 1.37
